Results from ChEMBL document CHEMBL5050844 (2019).

Tests used:
[1] = Induction of anti-CD3/CD28 antibodies-stimulated human T cell activation at 4 uM assessed fold increase in CD25 expression measured by ELISA assay; format: functional, T cell line
[2] = Induction of anti-CD3/CD28 antibodies-stimulated human T cell activation at 1 uM assessed fold increase in CD25 expression measured by ELISA assay; format: functional, T cell line
[3] = Induction of anti-CD3 antibodies-stimulated human T cell activation at 8 uM assessed fold increase in CD25 expression measured by ELISA assay; format: functional, T cell line; further: reference of the scale not given here
[4] = target: T1, E3 ubiquitin-protein ligase CBL-B (Homo sapiens, UniProt Q13191); experiment: Inhibition of N-terminal Avi-tagged human CBL-B (36 to 427 residues) incubated with 60 nM Src kinase for 1.5 hrs followed by incubation with fluorescently labeled UbcH5B-Ub for 1 hr and measured by TR-FRET assay; format: single protein
[5] = Induction of anti-CD3/CD28 antibodies-stimulated human T cell activation at 4 uM assessed fold increase in IL-2 secretion measured by ELISA assay; format: functional, T cell line
[6] = Induction of anti-CD3 antibodies-stimulated human T cell activation at 8 uM assessed fold increase in IL-2 secretion measured by ELISA assay; format: functional, T cell line; further: reference of the scale not given here
[7] = Induction of anti-CD3 antibodies-stimulated human T cell activation at 1 uM assessed fold increase in CD25 expression measured by ELISA assay; format: functional, T cell line; further: reference of the scale not given here
[8] = Induction of anti-CD3 antibodies-stimulated human CD4+ T cell activation in immunocompetent mouse assessed fold increase in CD25 expression at 135 mg/kg, po administered twice a day; format: functional; further: reference of the scale not given here
[9] = Induction of anti-CD3 antibodies-stimulated human CD8+ T cell activation in immunocompetent mouse assessed fold increase in CD25 expression at 90 mg/kg, po administered twice a day; format: functional; further: reference of the scale not given here
[10] = Induction of anti-CD3/CD28 antibodies-stimulated human T cell activation at 0.3 uM assessed fold increase in CD25 expression measured by ELISA assay; format: functional, T cell line
[11] = Induction of anti-CD3/CD28 antibodies-stimulated human T cell activation at 1 uM assessed fold increase in IL-2 secretion measured by ELISA assay; format: functional, T cell line
[12] = Induction of anti-CD3/CD28 antibodies-stimulated human T cell activation at 0.3 uM assessed fold increase in IL-2 secretion measured by ELISA assay; format: functional, T cell line
[13] = Induction of anti-CD3 antibodies-stimulated human T cell activation at 1 uM assessed fold increase in IL-2 secretion measured by ELISA assay; format: functional, T cell line; further: reference of the scale not given here
[14] = target: T1, E3 ubiquitin-protein ligase CBL-B; experiment: Binding affinity towards N-terminal biotinylated Avi-tagged human CBL-B (36 to 427 residues) measured by surface plasmon resonance assay
[15] = target: T1, E3 ubiquitin-protein ligase CBL-B; experiment: Inhibition of N-terminal Avi-tagged human CBL-B (36 to 427 residues) incubated with 30 nM Src kinase for 1.5 hrs followed by incubation with fluorescently labeled UbcH5B-Ub for 1 hr and measured by TR-FRET assay
[16] = Induction of anti-CD3/CD28 antibodies-stimulated human anergic T cell activation at 10 uM assessed fold increase in IFN-gamma secretion measured by ELISA assay; format: functional, T cell line
[17] = Induction of allogenic human T cell activation at 3 uM assessed fold increase in cell proliferation; format: functional, T cell line
[18] = Induction of allogenic human T cell activation at 10 uM assessed fold increase in cell proliferation; format: functional, T cell line
[19] = Induction of anti-CD3/CD28 antibodies-stimulated human anergic T cell activation at 1.11 uM assessed fold increase in IFN-gamma secretion measured by ELISA assay; format: functional, T cell line
[20] = Induction of anti-CD3 antibodies-stimulated human exhausted T cell activation assessed fold increase in GM-CSF secretion measured by ELISA assay; format: functional, T cell line; further: reference of the scale not given here
[21] = Induction of anti-CD3 antibodies-stimulated human exhausted T cell activation assessed fold increase in IFN-gamma secretion measured by ELISA assay; format: functional, T cell line; further: reference of the scale not given here
[22] = Induction of activation of human CD56+ CD3- NK cells co-cultured with human K562 cells in 1:1 ratio and assessed as increase in TNF-alpha secretion at 10 uM measured by ELISA assay; format: functional, Natural killer cell
[23] = Induction of activation of human CD56+ CD3- NK cells co-cultured with human K562 cells in 1:1 ratio and assessed as increase in TNF-alpha secretion at 2.5 uM measured by ELISA assay; format: functional, Natural killer cell
[24] = Induction of activation of human CD56+ CD3- NK cells co-cultured with human K562 cells in 1:1 ratio and assessed as increase in IFN-gamma secretion at 2.5 uM measured by ELISA assay; format: functional, Natural killer cell
[25] = Induction of anti-CD3 antibodies-stimulated human exhausted T cell activation assessed fold increase in IL-2 secretion measured by ELISA assay; format: functional, T cell line; further: reference of the scale not given here
[26] = Induction of activation of human CD56+ CD3- NK cells co-cultured with human K562 cells in 1:1 ratio and assessed as increase in TNF-alpha secretion at 0.625 uM measured by ELISA assay; format: functional, Natural killer cell
[27] = Induction of activation of human CD56+ CD3- NK cells co-cultured with human K562 cells in 1:1 ratio and assessed as increase in IFN-gamma secretion at 10 uM measured by ELISA assay; format: functional, Natural killer cell
[28] = Induction of anti-CD3/CD28 antibodies-stimulated human anergic T cell activation at 0.37 uM assessed fold increase in IFN-gamma secretion measured by ELISA assay; format: functional, T cell line
B cell = experiment: Induction of anti-IgM-stimulated human CD20+ B cell activation at 10 to 1000 uM assessed as increase in CD69 expression measured as mean fluorescence intensity AUC by flow cytometry analysis; format: functional, cell-based; conditions: dose 10-1000 µM
[29] = Induction of activation of human CD56+ CD3- NK cells co-cultured with human K562 cells in 1:1 ratio and assessed as increase in IFN-gamma secretion at 0.625 uM measured by ELISA assay; format: functional, Natural killer cell

T1 sequence (Q13191 whole entry, the tested form may be a part): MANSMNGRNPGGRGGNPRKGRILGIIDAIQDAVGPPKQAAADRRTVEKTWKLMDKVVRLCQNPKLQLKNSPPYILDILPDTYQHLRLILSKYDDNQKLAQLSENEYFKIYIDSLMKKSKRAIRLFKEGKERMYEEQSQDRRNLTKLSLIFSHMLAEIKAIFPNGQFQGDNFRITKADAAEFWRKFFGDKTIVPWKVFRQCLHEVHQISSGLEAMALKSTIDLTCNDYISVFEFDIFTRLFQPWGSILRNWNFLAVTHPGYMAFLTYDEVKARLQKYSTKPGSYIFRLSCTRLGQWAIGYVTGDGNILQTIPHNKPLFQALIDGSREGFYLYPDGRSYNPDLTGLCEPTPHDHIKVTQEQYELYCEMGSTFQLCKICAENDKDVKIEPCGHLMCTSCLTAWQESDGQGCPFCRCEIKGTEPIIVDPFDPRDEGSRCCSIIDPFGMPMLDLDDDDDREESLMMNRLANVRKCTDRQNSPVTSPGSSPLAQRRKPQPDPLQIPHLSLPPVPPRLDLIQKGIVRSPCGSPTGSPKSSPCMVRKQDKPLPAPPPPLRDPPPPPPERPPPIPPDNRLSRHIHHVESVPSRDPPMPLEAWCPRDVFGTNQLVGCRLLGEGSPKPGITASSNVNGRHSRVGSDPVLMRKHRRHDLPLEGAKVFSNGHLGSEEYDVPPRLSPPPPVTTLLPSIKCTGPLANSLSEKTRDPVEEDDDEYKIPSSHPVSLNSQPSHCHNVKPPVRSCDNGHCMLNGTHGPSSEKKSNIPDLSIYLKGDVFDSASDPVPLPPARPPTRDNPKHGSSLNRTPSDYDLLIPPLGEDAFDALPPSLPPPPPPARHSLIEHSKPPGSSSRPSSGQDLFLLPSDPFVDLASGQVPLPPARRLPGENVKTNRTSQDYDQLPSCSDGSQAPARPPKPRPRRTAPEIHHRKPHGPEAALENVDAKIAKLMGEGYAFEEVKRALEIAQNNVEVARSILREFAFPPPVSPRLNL

Q: For `Cn1cnnc1CC1(c2cccc(N3Cc4c(cc(CN5C[C@H]6C[C@H]6C5)cc4C(F)(F)F)C3=O)c2)COC1`, which “fold change (FC)” value [1] is on record?
A: Its value is 1.51.

Q: And the “fold change (FC)” value [2]?
A: Its value is 1.31.

Q: What about the “fold change (FC)” value [3] of the same molecule?
A: The value was “>=1.001”.

Q: What about the IC50 [4] of the same molecule?
A: The IC50 was less than 0.1 µM.

Q: What about the “fold change (FC)” value [5] of the same molecule?
A: The value was “>=7.5”.

Q: What about the “fold change (FC)” value [6] of the same molecule?
A: The value was “>=0.201”.

Q: What about the “fold change (FC)” value [7] of the same molecule?
A: The value was “>=1.001”.

Q: And the “fold change (FC)” value [8]?
A: Its value is 1.

Q: And the “fold change (FC)” value [9]?
A: Its value is 1.

Q: What about the “fold change (FC)” value [10] of the same molecule?
A: The value was 1.31.

Q: What about the “fold change (FC)” value [11] of the same molecule?
A: Its value is “>=7.5”.

Q: What about the “fold change (FC)” value [12] of the same molecule?
A: Its value is “>=7.5”.

Q: And the “fold change (FC)” value [13]?
A: Its value is “>=0.201”.

Q: With `Cn1cnnc1[C@@H](F)C1(c2cccc(N3Cc4c(cc(CN5CCC(F)CC5)cc4C(F)(F)F)C3=O)c2)COC1` as the molecule, how does the “fold change (FC)” value [2] read?
A: Its value is 1.51.

Q: And the IC50 [4]?
A: The IC50 was less than 0.1 µM.

Q: And the “fold change (FC)” value [7]?
A: The value was “>=1.001”.

Q: And the “fold change (FC)” value [8]?
A: Its value is 2.01.

Q: And the “fold change (FC)” value [9]?
A: The value was 1.

Q: And the Kd [14]?
A: The Kd was less than 0.1 µM.

Q: What about the “fold change (FC)” value [10] of the same molecule?
A: The value was 1.51.

Q: And the “fold change (FC)” value [11]?
A: The value was “>=7.5”.

Q: What about the “fold change (FC)” value [12] of the same molecule?
A: Its value is 5.

Q: And the “fold change (FC)” value [13]?
A: Its value is “>=0.201”.

Q: What does the source list for `Cn1cnnc1CC1(c2cccc(NC(=O)c3cc(CN4CC[C@H](F)C4)cc(C4CC4)n3)c2)COC1`?
A: fold change (FC) [2]: 1.51; IC50 [4]: < 0.1 µM; fold change (FC) [7]: >=1.001; fold change (FC) [8]: 1.51; fold change (FC) [9]: 1; Kd [14]: < 0.1 µM; fold change (FC) [10]: 1.51; fold change (FC) [11]: >=7.5; fold change (FC) [12]: >=7.5; fold change (FC) [13]: >=0.201

Q: With `Cc1ccc2ccc(C(=O)Nc3cccc(C(C)Sc4nncn4C)c3)nc2n1` (stereo not given) as the molecule, how does the IC50 [15] read?
A: Its IC50 is greater than 10 µM.

Q: For `C[C@@H](c1cc2c(c(C(F)(F)F)c1)CN(c1cccc(C3(Cc4nncn4C)COC3)c1)C2=O)N1CC2CC2C1` (stereo not given in full), which “fold change (FC)” value [2] is on record?
A: Its value is 1.31.

Q: What about the IC50 [4] of the same molecule?
A: The IC50 was less than 0.1 µM.

Q: And the “fold change (FC)” value [7]?
A: The value was “>=1.001”.

Q: What about the “fold change (FC)” value [8] of the same molecule?
A: The value was 1.

Q: And the “fold change (FC)” value [9]?
A: The value was 1.

Q: What about the “fold change (FC)” value [10] of the same molecule?
A: Its value is 1.31.

Q: What about the “fold change (FC)” value [11] of the same molecule?
A: Its value is “>=7.5”.

Q: And the “fold change (FC)” value [12]?
A: The value was “>=7.5”.

Q: What about the “fold change (FC)” value [13] of the same molecule?
A: Its value is “>=0.201”.

Q: Which results are given for `CN1CC2CCC(C1)N2c1cc2c(c(C(F)(F)F)c1)CN(c1cccc(C3(Cc4nncn4C)COC3)c1)C2=O`?
A: fold change (FC) [2]: 1.31; IC50 [4]: < 0.1 µM; fold change (FC) [7]: >=1.001; fold change (FC) [8]: 1; fold change (FC) [9]: 1; fold change (FC) [10]: 1.31; fold change (FC) [11]: >=7.5; fold change (FC) [12]: >=7.5; fold change (FC) [13]: >=0.201

Q: With `Cn1cnnc1CC1(c2cccc(N3Cc4c(cc(CN5CC6(CC6)C5)cc4C(F)(F)F)C3=O)c2)COC1` as the molecule, how does the “fold change (FC)” value [2] read?
A: The value was 1.31.

Q: What about the IC50 [4] of the same molecule?
A: Its IC50 is less than 0.1 µM.

Q: What about the “fold change (FC)” value [7] of the same molecule?
A: Its value is “>=1.001”.

Q: What about the “fold change (FC)” value [8] of the same molecule?
A: Its value is 1.51.

Q: And the “fold change (FC)” value [9]?
A: The value was 1.

Q: And the “fold change (FC)” value [10]?
A: Its value is 1.31.

Q: What about the “fold change (FC)” value [11] of the same molecule?
A: Its value is “>=7.5”.

Q: And the “fold change (FC)” value [12]?
A: The value was “>=7.5”.

Q: And the “fold change (FC)” value [13]?
A: Its value is “>=0.201”.

Q: Which results are given for `Cn1cnnc1CC1(c2cccc(N3Cc4c(cc(CN5CCC(F)CC5)cc4C(F)(F)F)C3=O)c2)COC1`?
A: IC50 [4]: < 0.1 µM; fold change (FC) [8]: 1.51; fold change (FC) [9]: 1

Q: For `Cn1cnnc1C(F)(F)[C@](C)(F)c1cccc(N2Cc3c(cc(N4CCNCC4)cc3C(F)(F)F)C2=O)c1`, which “fold change (FC)” value [1] is on record?
A: The value was 1.51.

Q: And the “fold change (FC)” value [16]?
A: Its value is 2.51.

Q: What about the “fold change (FC)” value [2] of the same molecule?
A: Its value is 1.51.

Q: What about the “fold change (FC)” value [3] of the same molecule?
A: The value was 0.801.

Q: What about the IC50 [4] of the same molecule?
A: The IC50 was less than 0.1 µM.

Q: And the “fold change (FC)” value [17]?
A: The value was “<=2”.

Q: What about the “fold change (FC)” value [18] of the same molecule?
A: The value was “<=2”.

Q: What about the “fold change (FC)” value [5] of the same molecule?
A: Its value is “>=7.5”.

Q: And the “fold change (FC)” value [6]?
A: The value was 0.051.

Q: What about the “fold change (FC)” value [19] of the same molecule?
A: Its value is 2.51.

Q: And the “fold change (FC)” value [20]?
A: The value was “<=1.4”.

Q: And the “fold change (FC)” value [21]?
A: Its value is 1.41.

Q: What about the “fold change (FC)” value [22] of the same molecule?
A: Its value is 2.01.

Q: And the “fold change (FC)” value [7]?
A: Its value is “>=1.001”.

Q: What about the “fold change (FC)” value [23] of the same molecule?
A: The value was 2.01.

Q: And the “fold change (FC)” value [24]?
A: Its value is 2.01.

Q: And the “fold change (FC)” value [25]?
A: The value was greater than 3.01.

Q: And the “fold change (FC)” value [10]?
A: Its value is 1.31.

Q: What about the “fold change (FC)” value [11] of the same molecule?
A: Its value is “>=7.5”.

Q: What about the “fold change (FC)” value [26] of the same molecule?
A: The value was 2.01.

Q: And the “fold change (FC)” value [27]?
A: Its value is 2.01.

Q: What about the “fold change (FC)” value [12] of the same molecule?
A: Its value is 2.51.

Q: And the “fold change (FC)” value [28]?
A: Its value is “<=2.5”.

Q: And the AUC (B cell)?
A: Its AUC is 0.5.

Q: And the “fold change (FC)” value [13]?
A: The value was “>=0.201”.

Q: What about the “fold change (FC)” value [29] of the same molecule?
A: Its value is 1.01.
